Data taken from US20240197166A1, “COMPUTATIONAL IN SILICO MODEL FOR CORNEA BARRIER” (CFD Research Corporation, priority 2022, published 2024).

Experiments:
[1] = system: cells of the in vitro cornea device (cell-laden channels); assay: Cytotoxicity by adenylate kinase release (luminescence) from the cell-laden channels of the in vitro cornea device; format: cell-based; conditions: trypan blue exposure; compared with positive control (100% death by lysis buffer) and negative control (media only); arbitrary luminescence units; worded "expected"
Experimental: (§1) In some embodiments, all channels of the device can be coated with human fibronectin to facilitate cellular attachment. For example, primary human corneal fibroblasts can be seeded on Day 0. Fibroblasts can be harvested, concentrated to 1×10^7 cells/mL and injected into the stromal chamber via a remote head syringe pump at 5 μL/min until cells are homogenously distributed. Devices can then be incubated at 37° C., 5% CO2 for 4 hours to allow for attachment. Media can be subsequently refreshed every 24 hours. Primary human corneal epithelial cells can be seeded into the TFEp circulation channel on Day 3. […]
(§2) Viability can be assessed on-chip as an endpoint for epithelial, fibroblast, and endothelial cells. Devices are prepared for viability quantitation by incubation with calcein AM and ethidium homodimer in PBS. After rinsing the cells with PBS, fluorescent images are taken via microscope, and the data was analyzed to determine cornea triculture viability (scc, FIG. 5A). […]
Following exposure, FSS can be injected into the TFEp channel and permeability assayed. […] Samples can be taken from cell-laden channels (individually or combined) and placed in a low volume, white walled […] plate for luminescence analysis using a plate reader. […] The increase in AK release in arbitrary luminescence units compares the toxic exposure of trypan blue to positive and negative controls.

[2] = system: corneal barrier of the in vitro cornea device (epithelial, fibroblast, endothelial triculture); assay: Permeability of the in vitro cornea device to FSS after trypan blue exposure; format: cell-based; conditions: trypan blue injected into TFEp channel at 3 μL/min for 4 min, incubated at 37° C. for 15 min; then FSS injected into TFEp channel and permeability assayed; worded "can be"
Experimental: as §1, §2
Following exposure, FSS can be injected into the TFEp channel and permeability assayed. […] Samples can be taken from cell-laden channels (individually or combined) and placed in a low volume, white walled […] plate for luminescence analysis using a plate reader. […] The increase in AK release in arbitrary luminescence units compares the toxic exposure of trypan blue to positive and negative controls. […]

Cc1cc(-c2ccc(/N=N/c3c(S(=O)(=O)O)cc4cc(S(=O)(=O)O)cc(N)c4c3O)c(C)c2)ccc1/N=N/c1c(S(=O)(=O)O)cc2cc(S(=O)(=O)O)cc(N)c2c1O [trypan blue]
Increase in adenylate kinase release [1]: 1.5 fold | Permeability in trypan blue treated devices compared to controls [2]: 10 fold
